Results on 14 molecules are retold here after US20130197071A1, “PRODUCTION OF LIPOXYGENASE INHIBITORS VIA FUNGAL BIOSYNTHETIC PATHWAY” (UNIVERSITY OF SOUTHERN CALIFORNIA, priority 2012, published 2013).

The target of series [1] is T1, soybean LOX-1 (Lipoxygenase-1, 15-Lipoxygenase) (Glycine max, UniProt P08170).
T1 construct: purchased Cayman Chemical #60712
T1 sequence (P08170 1-839): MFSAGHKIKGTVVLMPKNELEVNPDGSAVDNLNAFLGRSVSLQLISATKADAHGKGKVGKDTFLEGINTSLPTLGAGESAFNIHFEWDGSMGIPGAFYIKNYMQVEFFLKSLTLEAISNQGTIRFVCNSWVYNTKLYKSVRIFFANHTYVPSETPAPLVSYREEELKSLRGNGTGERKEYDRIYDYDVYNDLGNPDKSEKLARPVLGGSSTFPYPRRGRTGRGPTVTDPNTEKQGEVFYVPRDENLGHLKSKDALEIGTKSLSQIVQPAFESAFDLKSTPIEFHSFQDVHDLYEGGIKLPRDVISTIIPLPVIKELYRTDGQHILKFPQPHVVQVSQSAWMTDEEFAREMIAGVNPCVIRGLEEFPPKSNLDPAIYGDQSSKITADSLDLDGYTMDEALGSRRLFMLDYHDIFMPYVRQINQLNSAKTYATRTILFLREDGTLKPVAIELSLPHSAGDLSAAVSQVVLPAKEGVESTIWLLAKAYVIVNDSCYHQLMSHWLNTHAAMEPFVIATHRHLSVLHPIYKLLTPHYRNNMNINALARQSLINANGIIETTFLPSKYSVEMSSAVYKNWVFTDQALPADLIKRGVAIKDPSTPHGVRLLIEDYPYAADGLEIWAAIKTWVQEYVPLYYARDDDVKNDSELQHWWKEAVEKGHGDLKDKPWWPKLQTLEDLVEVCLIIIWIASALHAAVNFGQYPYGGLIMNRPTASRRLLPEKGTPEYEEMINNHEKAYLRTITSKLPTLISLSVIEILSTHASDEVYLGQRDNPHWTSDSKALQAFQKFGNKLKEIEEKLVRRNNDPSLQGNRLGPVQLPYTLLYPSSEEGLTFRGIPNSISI
Nature of the series: Soybean lipoxygenase-1 (LOX-1) inhibition assay, spectrophotometric at 234 nm, linoleic acid substrate. The class given is biochemical. The following applies: for LOX-1 inhibition (result in words): screening for soybean LOX-1 inhibition. Here is the method: ^1H and ^13C NMR spectra were recorded on a Varian Mercury Plus 400 spectrometer. Chemical shifts are reported in ppm relative to CDCl3 (^1H, δ 7.26; ^13C, δ 77.0) or acetone-d6 (^1H, δ 2.05; ^13C, δ 30.0, 206.0). ^1H NMR data is reported as: chemical shift, multiplicity (s=singlet, d=doublet, t=triplet, q=quartet, m=multiplet), coupling constant, and integration. Infrared spectra were recorded on a JASCO FTIR-4100. Infrared frequencies are reported in reciprocal centimeters. High resolution electrospray ionization mass was obtained on an Agilent 6210 time of flight LC-MS. Reactions were monitored by analytical thin-layer chromatography on EMD silica gel-60^F254 plates. Flash chromatography was performed on EMD silica gel 60, 70-230 mesh. All reagents were used without further purification unless otherwise noted. Reagents were purchased from Sigma-Aldrich, and Alfa Aesar. Diethyl ether (anhydrous) and 1,2-dichloroethane (anhydrous) were used directly from the bottle. Water sensitive reactions were performed under a nitrogen atmosphere with oven-dried glassware. Kinetic experiments for lipoxygenase inhibition were recorded on a Shimadzu UV-2401PC at 26° C. Materials for the lipoxygenase assay such as linoleic acid, 15-Lipoxygenase (soybean PO, and (+)-sclerotiorin were purchased from Cayman Chemicals.
The enzyme assay was performed according to Axelrod et. al.^18 Each solution was prepared and measured at room temperature. Enzyme kinetics was measured on a Shimadzu UV-2401PC at a wavelength of 234 nm in a quartz cuvette (FIG. 6). For the assay, the linoleic acid substrate was prepared by mixing 20 μL linoleic acid (Cayman Chemical #760716) with 20 μL KOH (Cayman Chemical #760713) and 40 μL double distilled water. Lipoxygenase-1 (Cayman Chemical #60712) was diluted from original stock concentration to a concentration of 100 U/mL in the cuvette. The semisynthetic azaphilones were prepared as stock concentrations in dimethylsulfoxide (DMSO) from 20 μM to 10 mM; 54, was added to the assay mixture to give the desired final concentration of the inhibitor with 1% of DMSO in the assay.
The spectrophotometric assay is based on monitoring the reaction, catalyzed by LOX-1 to convert linoleic acid (L) to the hydroperoxide (LOOH), at 234 nm. […] The reaction is initiated when the non-heme iron of LOX-1 in the ferric state is reduced by the substrate L. While in the enzyme-substrate complex, L is oxidized and converted to the peroxide free radical (LOO.), and subsequently released from the enzyme as LOOH Inhibitors can interfere in the process in several different ways to prevent the generation of LOOH by the chelation of iron, removal of oxygen or prevention of free radical formation.
Prior to measurements, a sample with buffer was used as a blank. In a quartz cuvette, each sample was prepared with 482.54, 0.2 M borate buffer (at a pH of 9.0) mixed with 54, inhibitor and 54, substrate by pipetting the solution. The cuvette was placed in the spectrophotometer and measured for 120 seconds and then rapidly 7.54, lipoxygenase-1 was added and mixed to initiate the reaction. Measurements were recorded every 30 seconds for 7.5 minutes.
Inhibition of an enzyme at 50% can be experimentally measured by monitoring enzyme kinetics. A kinetic study generates a curve where the slope provides the initial velocity (Vo) of the enzyme. For each sample with different inhibitor concentrations the initial velocity was derived from a linear segment between […]. The absorbance was used directly and not converted into concentration units. […] The concentration of inhibitor at which 50% inhibition occurred (as measured by change in Vo) was reported as the IC50.

The nature of series [2]: Solubility of compound 5 in aqueous culture media. The following applies: liquid lactose minimal medium culture. The class given is physicochemical. From the text: The fungal strain used to over-produce compound 5 contains genetic alterations as described in Table 1. The native promoter of afoA, the gene that codes for the pathway-specific transcription activator of the asperfuranone pathway was replaced with the inducible alcohol dehydrogenase promoter, alcA. The afoD gene, that codes for the hydroxylase in the asperfuranone pathway, was deleted to enable the accumulation of intermediate, compound 5.^11 It should be noted that the afo cluster is silent under normal laboratory growing conditions. The wild type strain, thus, produced non-detectable compound 5 and asperfuranone (4).

For series [3], the target named is T1, soybean LOX-1 (Lipoxygenase-1, 15-Lipoxygenase). Particulars: literature report (ref. 5); cited from earlier work.
Where [4] appears, read: soybean LOX-1, linoleic acid, 0.2 M borate buffer pH 9.0, 1% DMSO, 234 nm, read-out: Lipoxygenase-1 Inhibitory Activity IC50 (μM) ± s.d.

Entries after “also recorded” stand apart in the source; their conditions may differ. Where two headings read alike, the source gives them in different places.

Consider `CC[C@H](C)/C=C(C)/C=C/C(=O)Cc1cc(O)c(C)c(O)c1C=O` (stereo in doubt) [Compound 5, 2,4-dihydroxy-6-(5,7-dimethyl-2-oxo-trans-3-trans-5-nonadienyl)-3-methylbenzaldehyde], for which, in series [1] (setting [4]), the IC50 stood at 97.2 ± 2 µM. In addition, the “Solubility in aqueous media (in words)” value in series [2] is given as “poorly dissolved in aqueous media”.

In the case of `CC[C@H](C)/C=C(C)/C=C/C1=CC2=C(Cl)C(=O)[C@](C)(OC(C)=O)C(=O)C2=CO1` [Compound 1, (+)-sclerotiorin, reference compound], in series [1] (setting [4]), the IC50 was 7.8 ± 2.4 µM. Besides, in series [3], the “LOX-1 inhibition of (+)-sclerotiorin according to a report” value is “potent LOX-1 inhibition”. `CC[C@H](C)/C=C(C)/C=C/C1=CC2=CC(=O)C(C)(OC(C)=O)C(=O)C2=CO1` (stereo partly drawn) [Compound 7]: the “LOX-1 inhibition (result in words)” value in series [1] is “highest lipoxgyenase-1 inhibition; also recorded: most effective”. Also, the IC50 in series [1] (setting [4]) amounted to 4.9 ± 3.3 µM. Turning to `CC[C@H](C)/C=C(C)/C=C/C1=CC2=C(Cl)C(=O)C(C)(OC(C)=O)C(=O)C2=CO1` (stereo partly drawn) [Compound 8], the IC50 in series [1] (setting [4]) was 2.3 ± 0.9 µM. Still for that read-out and setting: in the case of `CC[C@H](C)/C=C(C)/C=C/C1=CC2=C(Br)C(=O)C(C)(OC(C)=O)C(=O)C2=CO1` (stereo partly drawn) [Compound 9] it was 6.8 ± 4.5 µM; in that of `CC[C@H](C)/C=C(C)/C=C/C1=CC2=C(I)C(=O)C(C)(OC(C)=O)C(=O)C2=CO1` (stereo partly drawn) [Compound 10], 17.4 ± 8.1 µM. On the same count and under the same terms, the figure for `CC[C@H](C)/C=C(C)/C=C/C1=CC2=CC(=O)C(C)(O)C(=O)C2=CO1` (stereo partly drawn) [Compound 11] is 10.7 ± 6.6 µM. For `CC[C@H](C)/C=C(C)/C=C/C1=CC2=C(Cl)C(=O)C(C)(O)C(=O)C2=CO1` (stereo partly drawn) [Compound 12], the midpoint of inhibition in series [1], the IC50, lay at 7.9 ± 3.9 µM. In the case of `CC[C@H](C)/C=C(C)/C=C/C1=CC2=C(Br)C(=O)C(C)(O)C(=O)C2=CO1` (stereo partly drawn) [Compound 13], the “LOX-1 inhibition (result in words)” value in series [1] was “highest lipoxgyenase-1 inhibition; also recorded: most effective”. In series [1] (setting [4]), the IC50 came to 3.2 ± 1.5 µM. Turning to `CC[C@H](C)/C=C(C)/C=C/C1=CC2=C(I)C(=O)C(C)(O)C(=O)C2=CO1` (stereo partly drawn) [Compound 14], the IC50 in series [1] (setting [4]) turned out to be 19.6 ± 11.9 µM.

On to `CCOC(=O)C=C1C2=COC(/C=C/C(C)=C/[C@@H](C)CC)=CC2=CC(=O)C1(C)O` (stereo partly drawn) [Compound 15], for which, in series [1] (setting [4]), the IC50 was > 100 µM.

`CCOC(=O)C=C1C2=COC(/C=C/C(C)=C/[C@@H](C)CC)=CC2=C(Br)C(=O)C1(C)O` (stereo partly drawn) [Compound 16]: in series [1] (setting [4]), the IC50 was > 100 µM.

In the case of `CCOC(=O)C=C1C2=COC(/C=C/C(C)=C/[C@@H](C)CC)=CC2=C(I)C(=O)C1(C)O` (stereo partly drawn) [Compound 17], the IC50 in series [1] (setting [4]) was > 100 µM.

In the case of asperfuranone [Compound 4], the 50% inhibitory concentration (IC50) in series [1] (setting [4]) was > 100 µM.

What is called IC50 is the concentration that inhibits the measured activity by half.
